From patent US11371994B2, “Phosphorylated Akt-specific capture agents, compositions, and methods of using and making” (California Institute of Technology, priority 2013, dated 2022)
“And” between values parts separate entries of the source, which are not always exact repeats. Equal entries are not always repeated. “Also recorded” adds a separate entry of the source.

What was measured:
Akt [1] = conditions: cited from earlier work
Akt2 [2] = biological target: T1, Akt2 (Homo sapiens, UniProt P31751); experiment: Single component ELISA, PCC agent as capture or detection agent (relative affinity); format: binding; design: purchased Abcam; conditions: for EC50: read-out: EC50 from single component ELISA
T1 sequence (P31751 whole entry, the tested form may be a part, canonical isoform): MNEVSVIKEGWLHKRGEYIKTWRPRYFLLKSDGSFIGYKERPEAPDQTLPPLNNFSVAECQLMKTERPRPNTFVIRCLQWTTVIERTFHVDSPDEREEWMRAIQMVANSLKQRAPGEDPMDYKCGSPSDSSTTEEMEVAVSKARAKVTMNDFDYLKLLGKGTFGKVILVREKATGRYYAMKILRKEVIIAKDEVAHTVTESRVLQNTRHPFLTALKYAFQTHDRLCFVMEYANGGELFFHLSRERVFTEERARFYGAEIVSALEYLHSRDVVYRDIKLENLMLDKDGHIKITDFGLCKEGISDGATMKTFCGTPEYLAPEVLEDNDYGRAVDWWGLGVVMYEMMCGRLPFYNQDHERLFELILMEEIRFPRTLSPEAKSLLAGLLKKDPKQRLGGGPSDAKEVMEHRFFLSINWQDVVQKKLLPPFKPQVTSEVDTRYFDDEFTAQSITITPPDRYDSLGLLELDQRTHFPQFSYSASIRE
Excerpt: FIG. 23: A. ELISA assays in which the PCC Agents are utilized as either as surface-localized capture agents (for N-tL, C-tL) or as the detection agent (for mono-L, bi-L). Such assays provide relative affinity measurements, which are given as EC50 values in the key. […] C. C-tL distinguishes the full length Akt2 from isoform proteins Akt1 and Akt3. D. The 32 amino acid long C terminal fragment from Akt2, Akt1 and Akt3. The hydrophobic motif is highlighted in blue. pS refers to phospho-serine. […] F. Selectivity assays: Biotinylated ligands or biotinylated pS473 antibody is immobilized on streptavidin-agarose and treated with OVCAR3 cell lysate. The eluents are stained with a pan-Akt antibody or pS473 Akt antibody.
(§1) 1.25 μM biotinylated ligand was prepared by diluting the 1 mM stock in binding buffer (25 mM tris chloride, pH=7.4, 150 mM NaCl, 0.1% BSA, 0.05% Tween 20). The prepared ligand solution or 0.125% DMSO in buffer (buffer control) was immobilized on a High Capacity Streptavidin 96 well plate (Thermo Scientific). After washing away the excess ligand, the plate was blocked overnight with 1% BSA/25 mM tris chloride, pH=7.4/150 mM NaCl, 0.05% Tween 20. 2.5 μM solutions of the His6 (SEQ ID NO:28) tagged target phosphopeptide epitope Akt2 amino acids 450-481, His6 (SEQ ID NO:28) tagged Akt1 amino acids 449-480, His6 (SEQ ID NO:28) tagged Akt3 amino acids 448-479 were added to each of the wells. Following three washes with the binding buffer, the plate was treated for an hour with a 1:1000 dilution of anti His6 (SEQ ID NO:28) mouse monoclonal antibody. A 1:10,000 dilution of goat anti mouse antibody-Horse Radish Peroxide conjugate in binding buffer was added to the wells. The plates were washed four times, five minutes each, with 0.05% Tween 20/TBS (25 mM tris chloride, pH=7.5, 150 mM NaCl) and once with TBS (25 mM tris chloride, pH=7.5, 150 mM NaCl). Color was developed by adding TMB substrate (KPL) to each well. The reaction was quenched with 0.5 M H2SO4. The A450 measured on a 96-well plate reader. The Net A450 was obtained by subtracting the absorbance value for the blank control (no immobilized ligand) from each of the triplicate values obtained for the ligand-epitope interaction. The selectivity assay with full length His6 (SEQ ID NO:28) tagged Akt1, Akt2 and Akt3 was performed following the same protocol, using 25 nM protein instead of 2.5 μM His6 tagged peptide epitope.

[3] = biological target: T2, target peptide epitope (Akt2 450-481, pS474) (Homo sapiens, UniProt P31751); experiment: ELISA of C terminal triligand candidates binding to the target peptide epitope; conditions: listed as C-t1
T2 construct: made in house; host or cells: chemical solid-phase peptide synthesis (Rink Amide MBHA resin)
T2 sequence (P31751 450-481 limits assumed): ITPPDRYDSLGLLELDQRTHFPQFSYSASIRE
Method: Selection of the final C terminal triligand C-tL: Four triligand candidates were synthesized with (L-Az4)-hdGGf (SEQ ID NO:25) […], (L-Az4)-hdGsf (SEQ ID NO:74) (C-t2), (L-Az4)-hdGww (SEQ ID NO:67) (C-t3), (L-Az4)-hdGkf (SEQ ID NO:77) (C-t4) as the 3° peptide arm. Binding of the candidates to the target peptide epitope was determined in an ELISA assay (FIG. 20C) and the ligand C-t1 emerged as the best binder. C-t1 was chosen as the C terminal triligand C-tL.
1.25 μM biotinylated ligand was prepared by diluting the 1 mM stock in binding buffer (25 mM tris chloride, pH=7.4, 150 mM NaCl, 0.1% BSA, 0.05% Tween 20). The prepared ligand solution or 0.125% DMSO in buffer (buffer control) was immobilized on a High Capacity Streptavidin 96 well plate (Thermo Scientific). After washing away the excess ligand, the plate was blocked overnight with 1% BSA/25 mM tris chloride, pH=7.4/150 mM NaCl, 0.05% Tween 20. 2.5 μM solutions of the His6 (SEQ ID NO:28) tagged target phosphopeptide epitope Akt2 amino acids 450-481, His6 (SEQ ID NO:28) tagged Akt1 amino acids 449-480, His6 (SEQ ID NO:28) tagged Akt3 amino acids 448-479 were added to each of the wells. […] The A450 measured on a 96-well plate reader. The Net A450 was obtained by subtracting the absorbance value for the blank control (no immobilized ligand) from each of the triplicate values obtained for the ligand-epitope interaction. […]

Akt2 epitope (450-481) = biological target: T3, Akt2 epitope (450-481) (Homo sapiens, UniProt P31751); experiment: Epitope selectivity ELISA with His6 tagged C-terminal 32-mer fragments; format: binding; conditions: peptide fragments; set also full protein level
T3 construct: made in house; host or cells: chemical solid-phase peptide synthesis (Rink Amide MBHA resin)
T3 sequence (P31751 450-481 limits assumed): T2 sequence (P31751 450-481 limits assumed)
Method: as §1, with “Color was developed by adding TMB substrate (KPL) to each well. The reaction was quenched with 0.5 M H2SO4.” left out, “The selectivity assay with full length His6 (SEQ ID NO:28) tagged Akt1, Akt2 and Akt3 was performed following the same protocol, using 25 nM protein instead of 2.5 μM His6 tagged peptide epitope.” left out

Akt [4] = biological target: T4, Akt (Homo sapiens, UniProt P31751); experiment: OVCAR3 lysate pull-down (immunoprecipitation) assay; format: binding; conditions: for immunoprecipitation of Akt from OVCAR3 cell lysate: eluents stained with pan-Akt antibody
T4 construct: endogenous in cells; host or cells: OVCAR3
T4 sequence (P31751 whole entry): as the sequence (P31751 whole entry, the tested form may be a part, canonical isoform) above
Method: OVCAR3 cells (ATCC) were grown in RPMI-1640 media containing 20% fetal bovine serum. Passage three cells were grown to ˜80% confluence. Cells were lysed with lysis buffer (10 mM Tris-Cl (pH=7.5), 100 mM NaCl, 1% (v/v) Triton X-100, 0.1% SDS (w/v), 0.5% deoxycholate, 1 mM DTT, 1 mM EDTA, 1× PhosStop phosphatase inhibitors (Roche), 1× Complete protease inhibitors (Roche)) and the amount of protein measured using BCA Protein Assay Kit (Pierce Biotechnologies, Inc). Streptavidin-agarose resin solution (EMD) was swelled in TBST (25 mM tris chloride, pH=7.5, 150 mM NaCl, 0.05% Tween-20). Each of the biotinylated ligands was immobilized on the Streptavidin-agarose resin by adding 7.2 μL of 1 mM ligand stock (DMSO) to 10 μL of the swelled streptavidin-agarose resin. For the blank control, the resin was treated with 7.2 μL of 1 mM biotinylated acyl glycine. […] After shaking overnight at 4° C., 50 μM D-biotin was added to the resin to block any remaining sites. The resin was washed with TBST five times, for fifteen minutes each. The resin was then swelled in binding buffer for two hours. To each of the immobilized ligands, 200 μL OVCAR3 cell lysate (1.9 mg/ml) was added. The tubes were shaken at 4° C. for 18 hours. The beads were extensively washed, three times for fifteen minutes in binding buffer, three times (fifteen minutes) in TBST, and three times (fifteen minutes) in TBS to remove unbound proteins. The resin bound proteins were eluted by adding 40 μL of 2×SDS-PAGE sample loading buffer (BioRad) and heating at 95° C. for five minutes. A 1:10 diluted sample of lysate in sample loading buffer was prepared by mixing 1 μL of the sample with 9 μL sample loading buffer and denaturing the sample by heating at 95° C. for five minutes. 10 μL of each sample was loaded on a 12% SDS-PAGE gels (BioRad) and run for 80 minutes at 110 volts. Three identical gels were loaded and run at the same time. One gel was used for Coomassie staining with Coomassie Fluor Orange Protein Gel Stain (Molecular Probes) following the manufacturer's protocol. The two other gels were transferred to nitrocellulose membranes by the semidry transfer method, blocked for two hours at 4° C. with 5% non-fat milk, and treated overnight at 4° C. with a 1:1000 dilution of pan-Akt rabbit monoclonal antibody (Cell Signaling Technology) and a 1:1000 dilution of pS473 Akt rabbit monoclonal antibody (Cell Signaling Technology), respectively, in 0.5% non-fat milk. The membranes were washed and treated for an hour with a 1:10,000 dilution of monoclonal mouse anti-rabbit-HRP secondary antibody (Cell Signaling Technology) in 0.5% milk. After five washes of five minutes each with TBST and one wash of five minutes with TBS, the blots were developed with West Dura ECL substrate (Thermo Scientific) and imaged on film.

Akt2 [5] = biological target: T1, Akt2; experiment: Non-radioactive kinase assay, phosphorylation of GSK-3α/β fusion protein; format: biochemical; design: purchased Abcam; conditions: for influence on Akt2 kinase activity (p-GSK-3α/β level): relative to DMSO control
Method: The non-radioactive kinase assay kit for Akt2 was purchased from Cell Signaling. Ligand solutions were made in DMSO. Kinase reactions were set up in 1× kinase buffer (25 mM trisHCl (pH 7.5), 10 mM MgCl2, 0.01% Triton-X, 1× Complete protease inhibitor (Roche), 1× Phosstop phosphatase inhibitor (Roche)), each 25 μL reaction mixture containing 400 ng Akt2, 400 ng GST-GSK-3α/β fusion protein, […] and 0.5 μL of peptide solutions in DMSO or DMSO only. Reactions were allowed to proceed for 30 minutes at 30° C. A reaction mixture was also prepared using a 1:2.5 dilution of anti pS473 antibody (Cell Signaling) in the kinase buffer instead of the peptide ligand or DMSO. The reactions were quenched by adding 12.5 μL of 2×SDS sample loading buffer and heating at 95° C. for five minutes. 10 μL from each sample was loaded on an any kD SDS gel (BioRad) and run for an hour at 110 volts. Following semidry transfer of the gel to a nitrocellulose membrane, the membrane was blocked in 5% nonfat milk/TBST for an hour at 4° C., and treated overnight at 4° C. with a 1:200 dilution of Phospho GSK-3α/β Ser (21/9) rabbit antibody (Cell Signaling) in 0.5% milk/TBST. Following washes, the membrane was treated with a 1:2000 dilution of mouse anti-rabbit-HRP antibody for an hour at 4° C. After four five minute washes with TBST, and one five minute wash with TBS, the membrane was treated with West Dura ECL substrate (Thermo Scientific) and imaged on film.

Akt2 [6] = biological target: T1, Akt2; conditions: read-out: equilibrium dissociation constant KD; SPR, Akt2 protein as analyte, 1:1 binding model, 10° C.
Method: A Biacore T100 machine was used for SPR experiments. A Streptavidin Chip (Series S, G.E. Healthcare) was conditioned as per manufacturer's recommendation. A stock of 1 mM biotinylated ligand was diluted into HBSP+ Buffer (G.E. Healthcare) to a final concentration of 100 nM and ˜150 RU was immobilized on the chip. Serial dilutions of the Akt2 protein were made in HBSP+ buffer for the experiment with the immobilized N-tL. The solution was flowed over the chip at 50 μL/min. Binding and dissociation were carried out at 10° C. with a contact time of 350 sec, a dissociation time of 390 sec, and a stabilization time of 200 sec, with buffer blanks between each concentration. The response was double corrected, using an unmodified reference flow cell and the response for the 0 concentration of Akt2 on the sample flow cell. The data was fitted to the kinetic Langmuir 1:1 binding model using the Biacore Evaluation software for T100 to calculate the dissociation constant.

Which “effect on Akt phosphorylation” value (Akt [1]) does the source give for Cc1n[nH]c2ccc(-c3cncc(OC[C@@H](N)Cc4c[nH]c5ccccc45)c3)cc12 [A-443654] here?
Its value is “paradoxical hyper-phosphorylation of Akt at both Thr308 and Ser473”.

For CC(=O)NC(CCCCn1cc(C[C@@H](NC(=O)CCCCn2cc(C[C@@H](NC(=O)[C@@H](Cc3ccccc3)NC(=O)[C@@H](Cc3ccc(O)cc3)NC(=O)CNC(=O)[C@@H](CC(N)=O)NC(=O)[C@H](N)Cc3c[nH]cn3)C(=O)O)nn2)C(=O)N[C@H](Cc2c[nH]c3ccccc23)C(=O)N[C@H](CCCCN)C(=O)N[C@@H](C(=O)N[C@H](CCCCN)C(=O)N[C@H](CCCCNC(=O)CCc2cn(CCCC[C@H](NC(C)=O)C(=O)N[C@H](Cc3c[nH]cn3)C(=O)N[C@H](CC(=O)O)C(=O)NCC(=O)NCC(=O)N[C@H](Cc3ccccc3)C(N)=O)nn2)C(=O)N2CCCCC2)C(C)C)nn1)C(=O)NCCOCCOCCOCCC(=O)NCCNC(=O)CCCC[C@@H]1SC[C@@H]2NC(=O)N[C@@H]21 (some centres unmarked) [C-tL], which EC50 (Akt2 [2]) is on record?
The EC50 was 0.125 µM.

What about the “binding to the target peptide epitope” value [3] of the same molecule?
The value was “best binder; also recorded: shows good binding”.

What about the “selectivity for the Akt2 epitope compared to corresponding regions in Akt1 and Akt3” value (Akt2 epitope (450-481)) of the same molecule?
The value was “significant selectivity for the Akt2 epitope”.

What about the “immunoprecipitation of Akt from OVCAR3 cell lysate” value (shortened to “immunoprecipitation of Akt”) (Akt [4]) of the same molecule?
Its value is “lower signal than N-tL”.

And the EC50 (Akt2 [5]; densitometry of pGSK3α/β western blot, normalized to DMSO control, read-out: EC50 of inhibition of Akt2 kinase activity)?
The EC50 was 4 µM and ~4 µM.

And the “influence on Akt2 kinase activity (p-GSK-3α/β level)” value (Akt2 [5])?
The value was “inhibits Akt2 kinase activity”.

With CC(=O)NC(CCCCn1cc(C[C@@H](NC(=O)[C@H](CCCCn2cc(C[C@@H](NC(=O)[C@@H](Cc3ccccc3)NC(=O)[C@@H](Cc3ccc(O)cc3)NC(=O)CNC(=O)[C@@H](CC(N)=O)NC(=O)[C@@H](Cc3c[nH]cn3)NC(=O)[C@H](CCCCn3cc(C[C@@H](NC(C)=O)C(=O)N[C@H](Cc4ccc(O)cc4)C(=O)N[C@H](Cc4ccc(O)cc4)C(=O)N[C@H](CCCNC(=N)N)C(=O)N[C@H](Cc4ccccc4)C(=O)NCC(N)=O)nn3)NC(C)=O)C(=O)O)nn2)NC(C)=O)C(=O)N[C@H](Cc2c[nH]c3ccccc23)C(=O)N[C@H](CCCCN)C(=O)N[C@@H](C(=O)N[C@H](CCCCN)C(=O)N[C@H](CC(C)C)C(N)=O)C(C)C)nn1)C(=O)NCCOCCOCCOCCC(=O)NCCNC(=O)CCCC[C@@H]1SC[C@@H]2NC(=O)N[C@@H]21 (some centres unmarked) [N-tL] as the molecule, how does the EC50 (Akt2 [2]) read?
The EC50 was 0.019 µM.

And the affinity (Akt2 [2]; strongest binding triligand)?
Its affinity is roughly 20 nM.

And the Kd (Akt2 [6])?
Its Kd is 0.025 µM.

What about the “immunoprecipitation of phosphorylated Akt from OVCAR3 cell lysate” value (Akt [4]; eluents stained with pS473 Akt antibody) of the same molecule?
Its value is “immunoprecipitate comparable amounts of active pS473 Akt”.

And the “immunoprecipitation of Akt” value (Akt [4])?
Its value is “immunoprecipitates more Akt, irrespective of its phosphorylation state”.

And the “immunoprecipitation of Akt” value (Akt [4]; listed as N-tri1)?
Its value is “more efficient; also recorded: immunoprecipitate Akt2 from OVCAR3 cells”.

What about the “influence on Akt2 kinase activity (p-GSK-3α/β level)” value (Akt2 [5]) of the same molecule?
Its value is “activate Akt above baseline; also recorded: activate Akt2”.
